These results are taken from ChEMBL document CHEMBL5131471, “Design, synthesis and mechanism studies of novel dual PARP1/BRD4 inhibitors against pancreatic cancer” (Eur J Med Chem, 2022).

The test system of assay [1] is Mus musculus. As to the kind of experiment: Upregulation of E2F2 expression in nude mouse xenografted with human SW1990 cells at 45 mg/kg, ip measured after 4 days by Western blot analysis. It is filed as functional, organism-based. To be noted: time 4.0 day. In general terms: Xenograft models place foreign cells or tissue in a host animal.
The subject of assay [2] is SW1990. As to the kind of experiment: Upregulation of Rad51 expression in human SW1990 cells at 6 uM measured after 4 days by Western blot analysis. Particulars: time 4.0 day. Type of assay: functional, cell-based. (Immunoblotting shows a protein as a band on a membrane.)
The test system of assay [3] is SW1990. As to the kind of experiment: Upregulation of ALDH1A1 expression in human SW1990 cells at 6 uM measured after 4 days by Western blot analysis. Type of assay: functional, cell-based. To be noted: time 4.0 day.
The test system of assay [4] is SW1990. The assay can be described thus: Upregulation of CDC25B expression in human SW1990 cells at 6 uM measured after 4 days by Western blot analysis. It is filed as functional, cell-based. To be noted: time 4.0 day.
Assay [5] relates to SW1990. The assay can be described thus: Upregulation of CCND1 expression in human SW1990 cells at 6 uM measured after 4 days by Western blot analysis. Particulars: time 4.0 day. Type of assay: functional, cell-based.
In assay [6] the test system is SW1990. The assay can be described thus: Effect on BRCA2 gene expression in human SW1990 cells at 6 uM by Q-PCR analysis. It is filed as functional, cell-based.
In assay [7] the test system is SW1990. The assay can be described thus: Effect on c-Myc gene expression in human SW1990 cells at 6 uM by Q-PCR analysis. It is filed as functional, cell-based.
Assay [8] concerns SW1990. The assay can be described thus: Induction of BRCA1 accumulation in nucleus of human SW1990 cells at 6 uM measured after 4 days by Western blot analysis. It is filed as functional, cell-based. To be noted: time 4.0 day.
In assay [9] the test system is SW1990. As to the kind of experiment: Induction of DNA damage in human SW1990 cells assessed as increase in gammaH2AX expression at 6 uM incubated for 4 days by DAPI staining based laser confocal microscopic analysis. It is filed as functional, cell-based. To be noted: time 4.0 day.
In assay [10] the test system is SW1990. As to the kind of experiment: Upregulation of CDK6 expression in human SW1990 cells at 6 uM measured after 4 days by Western blot analysis. Type of assay: functional, cell-based. Particulars: time 4.0 day.
Assay [11] concerns SW1990. As to the kind of experiment: Upregulation of CDK1 expression in human SW1990 cells at 6 uM measured after 4 days by Western blot analysis. Type of assay: functional, cell-based. Particulars: time 4.0 day.
Assay [12] concerns SW1990. As to the kind of experiment: Induction of apoptosis in human SW1990 cells assessed as late apoptotic cells at 6 uM measured after 4 days by Annexin V-FITC and propidium iodide staining based flow cytometry (reference value: 7.23%). Type of assay: functional. To be noted: time 4 day. In general terms: In flow cytometry, cells or beads pass a laser one at a time.
In assay [13] the test system is SW1990. As to the kind of experiment: Effect on MDC1 gene expression in human SW1990 cells at 4 uM by Q-PCR analysis. Type of assay: functional, cell-based.
The test system of assay [14] is SW1990. As to the kind of experiment: Effect on Rad51 gene expression in human SW1990 cells at 4 uM by Q-PCR analysis. Type of assay: functional, cell-based.
Assay [15] concerns SW1990. As to the kind of experiment: Effect on CDK1 gene expression in human SW1990 cells at 1 uM in presence of Olaparib by Q-PCR analysis. It is filed as functional, cell-based.
For assay [16], the system named is SW1990. The assay can be described thus: Effect on Rad51 gene expression in human SW1990 cells at 1 uM in presence of Olaparib by Q-PCR analysis. It is filed as functional, cell-based.
Assay [17] deals with SW1990. The assay can be described thus: Downregulation of Ki67 expression in human SW1990 cells at 15 mg/kg, ip in presence of 45 mg/kg, ip Olaparib measured after 28 days by immuno histochemical staining based fluorescence microscopic analysis. It is filed as functional, organism-based. Particulars: time 28.0 day.
Assay [18] concerns SW1990. The assay can be described thus: Effect on MDC1 gene expression in human SW1990 cells at 1 uM in presence of Olaparib by Q-PCR analysis. It is filed as functional, cell-based.
The test system of assay [19] is SW1990. As to the kind of experiment: Induction of DNA damage in human SW1990 cells assessed as increase in tail DNA at 1 uM incubated for 4 days in presence of 3 uM Olaparib by comet assay. Type of assay: functional, cell-based. To be noted: time 4.0 day.
Assay [20] relates to SW1990. As to the kind of experiment: Induction of DNA damage in human SW1990 cells assessed as increase in gammaH2AX expression at 1 uM incubated for 4 days in presence of Olaparib by DAPI staining based laser confocal microscopic analysis. Type of assay: functional, cell-based. Particulars: time 4.0 day.
Assay [21] is filed under the species Mus musculus. To be noted: dose 15.0 mg/kg, route ip, time 28.0 day.
The subject of assay [22] is Mus musculus. As to the kind of experiment: Inhibition of E2F2 expression in nude mouse xenografted with human SW1990 cells at 30 mg/kg, ip measured after 4 days by Q-PCR analysis. Type of assay: functional, organism-based. To be noted: time 4.0 day.
Assay [23] concerns the target Poly [ADP-ribose] polymerase 1 (Homo sapiens, UniProt P09874). As to the kind of experiment: Inhibition of PARP1 (unknown origin) using biotinylated NAD+ as substrate by microplate reader method.
Assay [24] concerns Mus musculus. The assay can be described thus: Inhibition of homologous recombinant repair in nude mouse xenografted with human SW1990 cells assessed as reversal of olaparib-induced BRCA2 expression at 30 mg/kg, ip after 4 days by Western blot analysis. It is filed as functional, organism-based. Particulars: time 4.0 day.
Assay [25] has as its system SW1990. As to the kind of experiment: Induction of DNA damage in human SW1990 cells assessed as increase in tail DNA at 1 to 2 uM incubated for 4 days by comet assay. To be noted: dose 1-2 µM, time 4.0 day. It is filed as functional, cell-based.
Assay [26] has as its system SW1990. As to the kind of experiment: Induction of apoptosis in human SW1990 cells assessed as early apoptotic cells at 1 uM measured after 4 days by Annexin V-FITC and propidium iodide staining based flow cytometry (reference value: 1.62%). It is filed as functional. To be noted: time 4 day.
Assay [27] has as its system SW1990. As to the kind of experiment: Induction of apoptosis in human SW1990 cells assessed as necrotic cells at 1 uM measured after 4 days by Annexin V-FITC and propidium iodide staining based flow cytometry (reference value: 2.45%). Particulars: time 4 day. Type of assay: functional.
The subject of assay [28] is SW1990. As to the kind of experiment: Effect on CDC25A gene expression in human SW1990 cells at 1 to 2 uM by Q-PCR analysis. Type of assay: functional, cell-based. To be noted: dose 1-2 µM.
Assay [29] relates to Mus musculus. The assay can be described thus: Inhibition of homologous recombinant repair in nude mouse xenografted with human SW1990 cells assessed as reversal of olaparib-induced FOXM1 expression at 30 mg/kg, ip measured after 4 days by Western blot analysis. Particulars: time 4.0 day. It is filed as functional, organism-based.
The test system of assay [30] is SW1990. The assay can be described thus: Induction of cell cycle arrest in human SW1990 cells assessed as accumulation of cells at S phase at 2 uM incubated for 4 days by propidium iodide staining based flow cytometry (reference value: 29.32%). It is filed as functional. Particulars: time 4 day.
The subject of assay [31] is SW1990. The assay can be described thus: Induction of apoptosis in human SW1990 cells assessed as early apoptotic cells at 2 uM measured after 4 days by Annexin V-FITC and propidium iodide staining based flow cytometry (reference value: 1.62%). Type of assay: functional. To be noted: time 4 day.
Assay [32] concerns Mus musculus. As to the kind of experiment: Inhibition of BRD4 expression in nude mouse xenografted with human SW1900 cells at 30 mg/kg, ip administered for 28 days by Western blot analysis. It is filed as functional, organism-based. Particulars: time 28.0 day.
The test system of assay [33] is SW1990. The assay can be described thus: Induction of apoptosis in human SW1990 cells assessed as necrotic cells at 2 uM measured after 4 days by Annexin V-FITC and propidium iodide staining based flow cytometry (reference value: 2.45%). It is filed as functional. Particulars: time 4 day.
Assay [34] relates to Mus musculus. The assay can be described thus: Induction of DNA damage in human SW1990 cells xenografted in nude mouse assessed as increase in gammaH2AX at 30 mg/kg, ip by immunohistochemical analysis. Type of assay: functional, organism-based.
Assay [35] relates to SW1990. The assay can be described thus: Effect on FOXO1 gene expression in human SW1990 cells at 1 to 2 uM by Q-PCR analysis. To be noted: dose 1-2 µM. Type of assay: functional, cell-based.
The test system of assay [36] is SW1990. As to the kind of experiment: Antitumor activity against human SW1990 cells xenografted in nude mouse assessed as reduction in tumor weight at 30 mg/kg, ip administered for 28 days and measured every 3 days by vernier caliper method. Type of assay: functional, organism-based. Particulars: time 28.0 day.
The test system of assay [37] is Mus musculus. The assay can be described thus: Inhibition of CDC25B expression in nude mouse xenografted with human SW1990 cells at 30 mg/kg, ip measured after 4 days by Q-PCR analysis. It is filed as functional, organism-based. To be noted: time 4.0 day.
In assay [38] the test system is Mus musculus. The assay can be described thus: Inhibition of CDC25B expression in nude mouse xenografted with human SW1990 cells at 30 mg/kg, ip measured after 4 days by Western blot analysis. Type of assay: functional, organism-based. To be noted: time 4.0 day.
For assay [39], the system named is SW1990. The assay can be described thus: Inhibition of CDK1 protein expression in human SW1990 cells at 1 to 2 uM measured after 4 days by Western blot analysis. Type of assay: functional, cell-based. Particulars: dose 1-2 µM, time 4.0 day.

Broadly, the IC50 is the concentration that gives 50% inhibition. A high value points to a need for much substance.

Calls of active or inactive are those of the source. The calls are words filed in the database; no cut-off is given here.

Sequence of Poly [ADP-ribose] polymerase 1 (P09874 whole entry): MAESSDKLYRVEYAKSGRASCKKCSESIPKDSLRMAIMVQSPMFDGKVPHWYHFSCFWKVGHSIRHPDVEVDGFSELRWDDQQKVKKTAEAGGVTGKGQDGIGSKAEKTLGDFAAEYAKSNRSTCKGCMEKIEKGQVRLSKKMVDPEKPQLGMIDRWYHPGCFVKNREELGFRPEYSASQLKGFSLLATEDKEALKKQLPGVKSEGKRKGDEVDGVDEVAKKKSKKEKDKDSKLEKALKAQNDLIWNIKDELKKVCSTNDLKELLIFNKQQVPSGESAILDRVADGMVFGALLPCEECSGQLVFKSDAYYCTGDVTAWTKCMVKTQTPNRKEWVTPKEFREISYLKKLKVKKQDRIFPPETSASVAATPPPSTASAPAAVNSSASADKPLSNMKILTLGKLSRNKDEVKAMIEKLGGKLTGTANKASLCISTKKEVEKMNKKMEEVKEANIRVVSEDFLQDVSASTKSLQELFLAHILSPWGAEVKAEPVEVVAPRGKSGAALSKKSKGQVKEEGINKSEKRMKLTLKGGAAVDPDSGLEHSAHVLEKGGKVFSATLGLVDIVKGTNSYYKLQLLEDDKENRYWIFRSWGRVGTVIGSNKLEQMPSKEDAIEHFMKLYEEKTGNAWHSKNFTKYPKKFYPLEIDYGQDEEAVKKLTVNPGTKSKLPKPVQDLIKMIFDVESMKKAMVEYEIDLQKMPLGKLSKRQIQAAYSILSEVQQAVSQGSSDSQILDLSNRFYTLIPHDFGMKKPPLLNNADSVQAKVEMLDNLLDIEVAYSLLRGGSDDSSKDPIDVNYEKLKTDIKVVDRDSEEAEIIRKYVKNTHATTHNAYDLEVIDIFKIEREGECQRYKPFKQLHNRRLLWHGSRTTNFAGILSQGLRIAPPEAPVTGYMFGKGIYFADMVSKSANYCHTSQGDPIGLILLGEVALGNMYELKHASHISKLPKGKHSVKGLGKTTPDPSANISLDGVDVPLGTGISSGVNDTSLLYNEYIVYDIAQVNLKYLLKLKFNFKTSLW

With `O=C(c1cc(Cc2n[nH]c(=O)c3ccccc23)ccc1F)N1CCN(C(=O)C2CC2)CC1` [OLAPARIB], the outcome in the assay with Mus musculus [1], in the assay on SW1990 [2], with SW1990 [3], in the assay on SW1990 [4], in the assay on SW1990 [5] and with SW1990 [6] was Active. The result in the assay with SW1990 [7], with SW1990 [8], in the assay on SW1990 [9], in the assay with SW1990 [10] and in the assay with SW1990 [11] was Active. The Activity with SW1990 [12] worked out at 22.9%.

Turning to `Cc1sc2c(c1C)C(c1ccc(Cl)cc1)=N[C@@H](CC(=O)OC(C)(C)C)c1nnc(C)n1-2`, the outcome in the assay with SW1990 [13], in the assay on SW1990 [14], in the assay on SW1990 [15], in the assay with SW1990 [16], in the assay on SW1990 [17] and with SW1990 [18] was Active. In addition, the outcome in the assay with SW1990 [19] and in the assay with SW1990 [20] was Active. In addition, in the assay filed under Mus musculus [21], the inhibition result is “Active”.

As for `Cc1noc(C)c1-c1ccc2c(c1)C(c1ccccc1)N(Cc1nc3c(C(N)=O)cccc3[nH]1)C(=O)N2C` (centres undefined), the inhibition result in the assay on Mus musculus [22], in the assay with Mus musculus [24], with Mus musculus [29], in the assay with Mus musculus [32], with Mus musculus [37] and in the assay on Mus musculus [38] was “Active” each time. The inhibition entry in the assay on SW1990 [39] is “Active”. The compound also registered an IC50 in [23] of 49 nM. Besides, the result in the assay on SW1990 [25], in the assay on SW1990 [28], with Mus musculus [34], in the assay with SW1990 [35] and in the assay with SW1990 [36] was Active. Moreover, the Activity in the assay with SW1990 [26] is recorded as 3.02%; in the assay on SW1990 [27], 3.62%; with SW1990 [30], 9%; in the assay with SW1990 [31], 1.06%; in the assay with SW1990 [33] it was 3.52%.
